In assay [1] the target is T1, NecC (Thelonectria discophora, UniProt A0A0S3Q283).
T1 sequence (A0A0S3Q283 1-558): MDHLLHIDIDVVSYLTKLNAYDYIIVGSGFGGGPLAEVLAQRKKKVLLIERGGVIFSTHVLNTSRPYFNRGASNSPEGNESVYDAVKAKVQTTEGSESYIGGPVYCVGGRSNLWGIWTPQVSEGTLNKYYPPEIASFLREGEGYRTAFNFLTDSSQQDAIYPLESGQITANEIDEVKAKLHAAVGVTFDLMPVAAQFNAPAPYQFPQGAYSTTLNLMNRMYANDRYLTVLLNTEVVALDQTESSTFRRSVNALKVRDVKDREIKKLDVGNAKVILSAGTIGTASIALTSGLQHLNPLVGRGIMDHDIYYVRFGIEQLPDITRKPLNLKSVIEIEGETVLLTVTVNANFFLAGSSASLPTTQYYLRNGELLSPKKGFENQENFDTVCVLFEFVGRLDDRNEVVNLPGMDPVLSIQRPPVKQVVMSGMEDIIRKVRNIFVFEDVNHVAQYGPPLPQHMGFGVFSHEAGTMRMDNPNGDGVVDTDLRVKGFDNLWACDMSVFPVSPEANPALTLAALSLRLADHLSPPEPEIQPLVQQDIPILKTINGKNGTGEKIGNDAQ
As to the kind of experiment: H2O2 production, ABTS/peroxidase coupled, absorbance at […] nm. To be noted: pH 7.0, 30 °C. The arrangement: native, purified from mycelium (ammonium sulfate, DEAE); FAD-like flavin; homo-oligomers about 8 mer to 16 mer. It is filed as biochemical.

Assay [2] deals with T1, NecC. As to the kind of experiment: LC-MS of nectrisine formed (NaBH4 reduction, NBD-F label). It is filed as biochemical. The arrangement: full-length cDNA in pET21b, C-terminal His tag, E. coli BL21 (DE3), Ni column; about 62 kDa. Conditions: 15 °C, 12.5 h.

For `N[C@H](CO)[C@@H](O)[C@H](O)CO` [compound 2, 4-amino-4-deoxyarabinitol], the “H2O2 production, ABTS/peroxidase coupled, absorbance at 420 nm” value in assay [1] (1 mM substrate, O2 as acceptor) was 4-amino-4-deoxyarabinitol was the preferred substrate. The “LC-MS of nectrisine formed (NaBH4 reduction, NBD-F label)” value in assay [2] was “the recombinant NecC had 4-amino-4-deoxyarabinitol oxidase activity”.
As to `OC[C@@H](O)[C@H](O)[C@@H](O)CO` [xylitol], in assay [1] (xylitol in place of 4-amino-4-deoxyarabinitol), the “H2O2 production, ABTS/peroxidase coupled, absorbance at 420 nm” value is “NecC also exhibited activity against some sugar alcohols”.

The values above are taken from PMC4718913, “Characterization of a novel oxidase from Thelonectria discophora SANK 18292 involved in nectrisine biosynthesis” (AMB Express, 2016).
